Data from patent US10968214B2, “KRas G12C inhibitors” (Eli Lilly and Company, priority 2018, dated 2021).
Where two headings read alike, the source gives them in different places.

Legend:
D122-96 = test: Combination 4 day growth assay (Cell TiterGlo), D122-96; format: cell-based; conditions: Mus musculus, 96 h, single treatment, read-out: Absolute IC50
Protocol: Cell lines for this study are obtained from ATCC and grown under ATCC recommended conditions, except for LXFA-983L, which is obtained from Oncotest/Charles Rivers Laboratories, Wilmington, Mass. and D122-96, which is obtained from L. Eisenbach (Weizman Institute of Science, Rehovot, Israel)—both grown under recommended conditions. […] The proliferation assay is performed as a 4 day growth assay using Cell TiterGlo® as the readout. Briefly, cells are plated in 96-well cell culture plates and allowed to adhere overnight at 37° C. The following day, cells are treated with compounds, either single treatments or combination treatments. First, the testing compounds are serially diluted in DMSO, followed by dilution into media as a 5× concentration with 1% DMSO, and finally added to cells in media to dilute to 1×. The cells are incubated at 37° C. for 4 more days. At the end of the incubation period, Cell TiterGlo® reagent is mixed and added to the wells. After 10 minutes, the luminescence is read by a Perkin Elmer Envision instrument. Absolute IC50 values generated by a 4-parameter logistics model for the single and combination treatments are generated, followed by combination indexes for each combination treatment and cell line. The combination IC50 values are adjusted based on the total concentration of each compound when added together. […] The combination index (CI) measures the degree to which the potency of a combination therapy differs from the expected-if-additive potency and is based on the Loewe definition of additivity.
[formula] Where • CAy and CBy are the concentrations of therapies A and B that produce an effect, y, when given in combination • ICAy and ICBy are the concentrations of A and B that produce an effect, y, when given individually The biological interpretation of the combination index is as follows: synergistic if the combination index <0.5, additive if the combination index is between 0.5 and 2, and antagonistic if the combination index is >2.

[1] = system: pERK in H358 xenograft tumors; test: In vivo target inhibition/PD, H358 xenograft, pERK; set-up: species or system mouse; conditions: for inhibition at 10 mg/kg: 10 mg/kg single dose; for inhibition at 30 mg/kg: 30 mg/kg single dose
Protocol: (§1) To evaluate in vivo target inhibition and anti-tumor efficacy of a compound, Human lung cancer cells, H358 or H2122 are implanted into nude mice xenograft tumor models. Either H358 or H2122 cells (10×10^6 in a 1:1 Matrigel® mix, 0.2 mL total volume) are implanted by subcutaneous injection in hind leg of nude female mice (Harlan Laboratories). A total of 5 mice each group are used for efficacy study, and a total of 3-4 mice each group are used for target engagement and PD study. Treatment is initiated with oral administration (gavage) of a test compound or vehicle (20% Captisol®, 25 mM phosphate, pH 2.0 in 0.2 mL volume when the tumor size reaches approximately […]. Tumor growth and body weight are monitored over time to evaluate efficacy and signs of toxicity. Bidimensional measurements of tumors are performed twice a week and tumor volumes are calculated based on mid-axis length and mid-axis width. Tumor volume data are transformed to a log scale to equalize variance across time and treatment groups. The log volume data are analyzed with a two-way repeated measures analysis of variance by time and treatment using the mixed procedures in SAS software (version 8.2). The correlation model for the repeated measures is spatial power. Treated groups are compared to the control group at each time point. The mixed procedure is also used separately for each treatment group to calculate adjusted means and standard errors at each time point. Both analyses account for the autocorrelation within each animal. The adjusted means and standard errors are plotted for each treatment group versus time.
(§2) For in vivo target inhibition and PD analysis, tumors are ground by mortar and pestle on dry ice and tumor fragments are added to 800 μL of lysis buffer containing 1% Triton X100, 25 mM Tris pH 7.5, 150 mM NaCl, 1 mM EDTA, and 1 mM EGTA with Halt protease and phosphatase inhibitor cocktail (Thermo Scientific, cat. no. 1861281) in lysing matrix D tubes (MP Biomedical®, cat. no. 6913-500) with one additional large bead (MP Biomedical® ¼″ ceramic sphere bead cat. no. 6540-412) per tube. Tumor fragments are homogenized in a Thermo Bio101® fast prep (FP120) at setting 4 for […] while cold for a total of 2 times. Lysates are spun at 14,000 rpm for 10 min at 4° C. to clarify. Protein estimation is done on the lysate supernatant using a BioRad Dc® protein assay and lysates are diluted in complete lysis/binding buffer from the Ras GTPase Chemi ELISA Kit® (Active Motif, cat. no. 52097). The active KRas ELISA was performed as follows: Glutathione-coated ELISA wells were incubated with diluted RAF1-GST in complete lysis/binding buffer for 1 hr at 4° C. with gentle agitation. Wells are washed 3 times with wash buffer and 100 μg of lysates are added to each well and incubated at RT for 1 hr with mild agitation. The wells are washed an additional 3 times, then primary antibody, diluted in antibody binding buffer, is added to each well. The plates are incubated for 1 hr. The wells are washed 3 more times before adding HRP-conjugated secondary antibody, diluted in antibody binding buffer, to each well. The plates are incubated at RT for 1 hr. ELISA wells are washed 4 times, chemiluminescent reagents is added and then luminescence is read. For pERK Meso Scale Discovery ELISA, 25 μg of protein containing 0.1% SDS is used; for pMEK Meso Scale Discovery ELISA, 50 μg of protein without SDS is used. Meso Scale Discovery Whole Cell Lysate Kits for pERK and pMEK are provided by Meso Scale Discovery.
The tumor samples are collected 4 hr post a single dose. The tumor lysates are prepared and the inhibition of pERK, pMEK, and active KRas is measured as described above.
After a single dose, the tumor samples are harvested at 2, 4, 8, 12 and 24 hr post doing. The tumor lysates are prepared and the inhibition of pERK, pMEK, and active KRas is measured as described above.

[2] = system: pERK in H2122 xenograft tumors; test: In vivo target inhibition/PD, H2122 xenograft, pERK; conditions: Mus musculus, NCI-H2122; for inhibition at 10 mg/kg: 10 mg/kg single dose
Protocol: as §1, §2
After a single dose, the tumor samples are harvested at different time points. The tumor lysates are prepared as described above. The inhibition of pERK, pMEK, and active KRas is measured as described above.

[3] = Mus musculus, NCI-H358, 2 h, H358 xenograft, time course, 2 hr, read-out: % Inhibition pERK
[4] = Mus musculus, NCI-H358, 4 h, H358 xenograft, time course, 4 hr, read-out: % Inhibition pERK
[5] = Mus musculus, NCI-H358, 4 h, H358 xenograft, 4 hr post dose, read-out: % Inhibition pERK
[6] = Mus musculus, NCI-H358, 8 h, H358 xenograft, time course, 8 hr, read-out: % Inhibition pERK
[7] = Mus musculus, NCI-H358, 12 h, H358 xenograft, time course, 12 hr, read-out: % Inhibition pERK
[8] = Mus musculus, NCI-H358, 24 h, H358 xenograft, time course, 24 hr, read-out: % Inhibition pERK

With `C=CC(=O)N1CCN(c2ncnc3c(F)c(-c4ccc(F)c5sc(N)nc45)c(Cl)cc23)CC1` [Example 1, 1-{4-[7-(2-Amino-7-fluoro-1,3-benzothiazol-4-yl)-6-chloro-8-fluoroquinazolin-4-yl]piperazin-1-yl}prop-2-en-1-one] the IC50 (D122-96) was 124 nM, the “dose to achieve 50% target inhibition (TED50), pERK” value ([1]; H358 xenograft, single dose, 4 hr) was 9.78 mg/kg and the inhibition at 10 mg/kg [1, 3] was 61.7%. It also gave an inhibition at 30 mg/kg [1, 3] of 83.1%, an inhibition at 10 mg/kg [1, 4] of 73.5% and an inhibition at 30 mg/kg [1, 4] of 87.3%. For the same compound, the inhibition at 1 mg/kg ([1]; Mus musculus, NCI-H358, 4 h, H358 xenograft, 1 mg/kg single dose, 4 hr post dose) was 5.5%, the inhibition at 3 mg/kg ([1]; Mus musculus, NCI-H358, 4 h, H358 xenograft, 3 mg/kg single dose, 4 hr post dose) was 16.4% and the inhibition at 10 mg/kg [1, 5] was 47.8%. For the same compound, the inhibition at 30 mg/kg [1, 5] was 84.2%, the inhibition at 100 mg/kg ([1]; Mus musculus, NCI-H358, 4 h, H358 xenograft, 100 mg/kg single dose, 4 hr post dose) was 83.5% and the inhibition at 10 mg/kg [1, 6] was 69.2%. For the same compound, the inhibition at 30 mg/kg [1, 6] was 86.5%, the inhibition at 10 mg/kg [1, 7] was 83% and the inhibition at 30 mg/kg [1, 7] was 77.4%. It also gave an inhibition at 10 mg/kg [1, 8] of 45%, an inhibition at 30 mg/kg [1, 8] of 63.4% and an inhibition at 10 mg/kg ([1]; Mus musculus, NCI-H358, H358 xenograft, from 2-12 hr, read-out: pERK inhibition) of 61 to 83%. For the same compound, the inhibition at 30 mg/kg ([1]; Mus musculus, NCI-H358, H358 xenograft, from 2-24 hr, read-out: pERK inhibition) was 63 to 87%, the EC50 ([1]; Mus musculus, NCI-H358, H358 xenograft, plasma exposure by mass spectrum, read-out: plasma concentration to achieve 50% target inhibition (TEC50), pERK) was 474 nM and the inhibition at 10 mg/kg ([2]; H2122 xenograft, 2 hr, read-out: % Inhibition pERK) was 46.8%. For the same compound, the inhibition at 10 mg/kg ([2]; H2122 xenograft, 4 hr, read-out: % Inhibition pERK) was 47%, the inhibition at 10 mg/kg ([2]; H2122 xenograft, 8 hr, read-out: % Inhibition pERK) was 34.5% and the inhibition at 10 mg/kg ([2]; H2122 xenograft, 12 hr, read-out: % Inhibition pERK) was 7.2%. It also gave an inhibition at 10 mg/kg ([2]; H2122 xenograft, 24 hr, read-out: % Inhibition pERK) of -2.8%, an inhibition at 10 mg/kg ([2]; H2122 xenograft, from 2-12 hr, read-out: pERK inhibition) of 7 to 47% and an inhibition at 30 mg/kg ([2]; H2122 xenograft, 30 mg/kg single dose, 2 hr, read-out: % Inhibition pERK) of 75.6%. It also gave an inhibition at 30 mg/kg ([2]; H2122 xenograft, 30 mg/kg single dose, 4 hr, read-out: % Inhibition pERK) of 75.3%, an inhibition at 30 mg/kg ([2]; H2122 xenograft, 30 mg/kg single dose, 8 hr, read-out: % Inhibition pERK) of 67.4% and an inhibition at 30 mg/kg ([2]; H2122 xenograft, 30 mg/kg single dose, 12 hr, read-out: % Inhibition pERK) of 48.8%. It also gave an inhibition at 30 mg/kg ([2]; H2122 xenograft, 30 mg/kg single dose, 24 hr, read-out: % Inhibition pERK) of 20.4%, an inhibition at 100 mg/kg ([2]; H2122 xenograft, 100 mg/kg single dose, 4 hr) of 79.1% and an inhibition at 30 mg/kg ([2]; read-out: pERK inhibition) of 49 to 76%.
